One data set relates to HL-60. The experiment in a line: Cytotoxicity against human HL-60 cells assessed as reduction in cell viability. The format is functional, cell-based.
In data set [1] the test system is HeLa. The experiment in a line: Cytotoxicity against human HeLa cells assessed as reduction in cell viability by MTT assay. The format is functional, cell-based. On the technique in general: Tetrazolium assays rely on reduction of a dye to a coloured formazan, in cell work by metabolically active cells.
The subject of another data set is A-375. Briefly: Cytotoxicity against human A-375 cells assessed as reduction in cell viability by CCK-8 assay. The format is functional, cell-based.
Data set [2] deals with HepG2. Briefly: Cytotoxicity against human HepG2 cells assessed as reduction in cell growth incubated for 48 hrs by CCK-8 assay. The conditions noted are these: HepG2, 48 h. Format: functional, cell-based.
For another data set, the system named is MDA-MB-231. The experiment in a line: Cytotoxicity against human MDA-MB-231 cells assessed as reduction in cell growth incubated for 48 hrs by CCK-8 assay. The format is functional, cell-based. The conditions noted are these: MDA-MB-231, 48 h.
Data set [3] has as its system HeLa. The experiment in a line: Cytotoxicity against human HeLa cells assessed as reduction in cell growth measured after 72 hrs by MTT assay. The format is functional, cell-based.
The test system of data set [4] is HepG2. Briefly: Cytotoxicity against human HepG2 cells assessed as reduction in cell growth. Format: functional, cell-based.
The nature of data set [5]: Cytotoxicity against human Huh-7 cells assessed as reduction in cell growth. Format: toxicity, cell-based.
For data set [6], the system named is K562. The experiment in a line: Cytotoxicity against human K562 cells assessed as reduction in cell viability by MTT assay. Format: functional, cell-based.
Data set [7] concerns HeLa. The experiment in a line: Cytotoxicity against human HeLa cells assessed as reduction in cell growth measured after 24 hrs by MTT assay. The format is functional, cell-based.
For a further data set, the system named is L5178Y. The experiment in a line: Cytotoxicity against mouse L5178Y cells assessed as reduction in cell growth by MTT assay. The format is functional, cell-based.
Data set [8] relates to K562. The experiment in a line: Cytotoxicity against human K562 cells assessed as reduction in cell growth by MTT assay. The format is functional, cell-based.
The nature of data set [9]: Cytotoxicity against human A2780cis cells assessed as cell growth inhibition by SRB assay. The format is functional, cell-based.
In a further data set the test system is P388. The experiment in a line: Anticancer activity against mouse P388 cells assessed as inhibition of cell growth. Format: functional. Particulars: read-out: ED50 (the source's name).
A further data set deals with DU-145. The experiment in a line: Growth inhibition of human DU-145 cells. The format is functional.
The next data set deals with KM-20L2. The experiment in a line: Growth inhibition of human KM-20L2 cells. Format: functional.
For data set [10], the system named is NCI-H460. Briefly: Growth inhibition of human NCI-H460 cells. Format: functional.
The subject of data set [11] is MCF7. The experiment in a line: Growth inhibition of human MCF7 cells. The format is functional.
Another data set relates to FaDu. Briefly: Growth inhibition of human FaDu cells. Format: functional.
The test system of a further data set is SW-1736. The experiment in a line: Growth inhibition of human SW-1736 cells. The format is functional.
The next data set relates to BXPC-3. Briefly: Growth inhibition of human BXPC-3 cells assessed as reduction in cell viability measured after 3 days by CCK-8 assay. The format is functional. Particulars: BXPC-3, 72 h, time 3 day.
For data set [12], the system named is SF-268. The experiment in a line: Growth inhibition of human SF-268 cells. The format is functional.
A further data set deals with SK-N-SH. Briefly: Growth inhibition of human SK-N-SH cells. Format: functional.
Data set [13] deals with HepG2. The experiment in a line: Cytotoxicity against human HepG2 cells. The format is functional, cell-based.
For a further data set, the system named is HEp-2. The experiment in a line: Cytotoxicity against human HEp-2 cells assessed as reduction in cell growth. Format: functional, cell-based.
Data set [14] concerns HCT-116. Briefly: Cytotoxicity against human HCT-116 cells. Format: functional, cell-based.
Data set [15] has as its system MCF7. Briefly: Cytotoxicity against human MCF7 cells. The format is functional, cell-based.
Data set [16] relates to HeLa. Briefly: Cytotoxicity against human HeLa cells. The format is functional, cell-based.
Data set [17] concerns MCF7. Briefly: Cytotoxicity against human MCF7 cells assessed as reduction in cell growth incubated for 72 hrs by SRB assay. The format is functional, cell-based. The conditions noted are these: MCF7, 72 h.
Data set [18] has as its system SF-268. The experiment in a line: Cytotoxicity against human SF-268 cells assessed as reduction in cell growth incubated for 48 hrs by SRB assay. The format is functional, cell-based. The conditions noted are these: SF-268, 48 h. Background: Sulforhodamine B stains cellular protein and so reports cell mass.
Data set [19] has as its system U-937. The experiment in a line: Cytotoxicity against human U-937 cells assessed as reduction in cell viability. The format is functional, cell-based.
Data set [20] has as its system PC-3. The experiment in a line: Cytotoxicity against human PC-3 cells assessed as reduction in cell viability measured after 72 hrs by MTT assay. Particulars: PC-3, 72 h. Format: functional, cell-based.
Data set [21] has as its system HCT-116. The experiment in a line: Cytotoxicity against human HCT-116 cells assessed as reduction in cell viability incubated for 24 hrs by MTT assay. The conditions noted are these: HCT-116, 24 h. Format: functional, cell-based.
The nature of data set [22]: Cytotoxicity against mouse FM3A tsFT210 cells assessed as inhibition of cell growth. Format: functional, cell-based.
For data set [23], the system named is SF-268. The experiment in a line: Cytotoxicity against human SF-268 cells assessed as reduction in cell growth incubated for 72 hrs by SRB assay. Format: functional, cell-based. Particulars: SF-268, 72 h.
The subject of data set [24] is NCI-H460. Briefly: Cytotoxicity against human NCI-H460 cells assessed as reduction in cell growth incubated for 48 hrs by SRB assay. The format is functional, cell-based. Particulars: NCI-H460, 48 h.
Data set [25] relates to HepG2. The experiment in a line: Cytotoxicity against human HepG2 cells assessed as reduction in cell growth incubated for 72 hrs by SRB assay. Format: functional, cell-based. Particulars: HepG2, 72 h.
For a further data set, the system named is HEK293. Briefly: Cytotoxicity against HEK293 cells assessed as cell growth inhibition. The conditions noted are these: Homo sapiens. The format is functional, cell-based.
The subject of data set [26] is NCI-H460. The experiment in a line: Cytotoxicity against human NCI-H460 cells assessed as reduction in cell growth incubated for 72 hrs by SRB assay. The format is functional, cell-based. Particulars: NCI-H460, 72 h.
Data set [27] concerns HCT-116. The experiment in a line: Cytotoxicity against human HCT-116 cells assessed as reduction in cell viability incubated for 72 hrs by MTT assay. The format is functional, cell-based. Particulars: HCT-116, 72 h.
Another data set concerns RKO. The experiment in a line: Cytotoxicity against human RKO cells assessed as inhibition of cell growth measured after 48 hrs by MTT assay. Format: functional, cell-based.
Data set [28] concerns HepG2. Briefly: Cytotoxicity against human HepG2 cells assessed as reduction in cell growth incubated for 48 hrs by SRB assay. Particulars: HepG2, 48 h. The format is functional, cell-based.
Data set [29] relates to U-937. The experiment in a line: Cytotoxicity against human U-937 cells assessed as reduction in cell viability incubated for 72 hrs by MTT assay. Particulars: U-937, 72 h. Format: functional, cell-based.
Data set [30] deals with MCF7. Briefly: Cytotoxicity against human MCF7 cells assessed as reduction in cell growth incubated for 48 hrs by SRB assay. Format: functional, cell-based. The conditions noted are these: MCF7, 48 h.
Data set [31] has as its system PC-3. The experiment in a line: Cytotoxicity against human PC-3 cells assessed as reduction in cell viability. The format is functional, cell-based.

The structures appear in SMILES notation. pIC50: −log10 of the molar value. Values after ≈ are worked out from the molar mass of the structure shown.

For orientation: pIC50 means the IC50 on a negative log10 scale, so that one unit is a factor of ten. In the case of `COc1ccc2c(c1)N[C@@]1(C2=O)[C@H](C=C(C)C)N2C(=O)[C@]3(O)CCCN3C(=O)[C@]2(O)[C@H]1O`, the pIC50 in the data set with HL-60 is 5.22.
On to `CS[C@@H]1C(=O)N[C@](Cc2ccc(OCC=C(C)C)cc2)(SC)C(=O)N1C`, for which the pIC50 in the data set with HeLa [1] was 5.38.
As for `CC(C)C[C@@H]1NC(=O)[C@@H]2C[C@@]3([C@@]45C[C@H]6C(=O)N[C@@H](Cc7ccccc7)C(=O)N6[C@@H]4Nc4ccccc45)c4ccccc4N[C@H]3N2C1=O`, in the data set on A-375, the pIC50 is 4.99.
For the compound `COc1ccc2c(c1)NC(=O)[C@]21[C@H](C=C(C)C)N2C(=O)[C@@H]3CCCN3C(=O)[C@]2(O)[C@H]1O`, the results for the pIC50 in the data set on HepG2 [2] and with MDA-MB-231 were 4.85 and 4.45, respectively.
As for `CC(C)[C@H]1C(=O)N2[C@@H]3N4c5ccccc5[C@]3(C[C@@H]3[C@@]5(C)CCCC(C)(C)[C@@H]5CC[C@]34C)C[C@H]2C(=O)N1C`, in the data set on HeLa [3], the pIC50 is 4.78.
As to `C[C@H]1CN2CC[C@]34C[C@@]5(C(=O)Nc6c5ccc5c6C(=O)CC(C)(C)O5)C(C)(C)[C@@H]3[C@@]2(C1)C(=O)N4C`, the pIC50 in the data set on HepG2 [4] is 5.43; in data set [5], 5.55.
As to `CS[C@@H]1C(=O)N(C)/C(=C/c2ccc(OCC=C(C)C)cc2)C(=O)N1C`, in the data set with K562 [6], the pIC50 is 4.90.
The IC50 is the midpoint of a concentration-inhibition curve. On to `O=C1N[C@@H](C[C@@]2(O)c3ccccc3N3C(=O)C[C@@H](c4ccccc4)N[C@H]32)C(=O)N[C@H]1Cc1ccccc1`, for which, in the data set on HeLa [7], the IC50 stood at 8.4 µg/mL (≈ 16.9 µM).
Consider `C[C@]12NC(=O)[C@@H](Cc3c1[nH]c1ccccc31)n1c2nc2ccccc2c1=O`, for which the pIC50 with L5178Y was 5.44; with K562 [8], 4.82; in data set [9] it was 4.41.
As a reminder, the GI50 is the concentration giving 50% growth inhibition. As for `CN1C(=O)N[C@H]2[C@@H]3NC(=O)c4ccc(Br)n4[C@@H]3C[C@]21O` [AGELASTATIN A], the EC50 in the data set on P388 worked out at 0.052 µg/mL (≈ 0.152 µM). In addition, the GI50 in the data set with DU-145 amounted to 0.056 µg/mL (≈ 0.164 µM); in the data set on KM-20L2 it was 0.036 µg/mL (≈ 0.106 µM); in the data set with NCI-H460 [10], 0.036 µg/mL (≈ 0.106 µM); in the data set with MCF7 [11], 0.033 µg/mL (≈ 0.0967 µM); with FaDu it was 0.24 µg/mL (≈ 0.703 µM); with SW-1736 it was 0.12 µg/mL (≈ 0.352 µM). In addition, the GI50 in the data set with BXPC-3 is 0.089 µg/mL (≈ 0.261 µM); in the data set on SF-268 [12], 0.038 µg/mL (≈ 0.111 µM); with SK-N-SH, 0.042 µg/mL (≈ 0.123 µM).
As for `CC(C)/C=C1\NC(=O)[C@H](CCC(N)=O)n2c1nc1ccccc1c2=O` [AURANTIOMIDE C], the IC50 in the data set with HepG2 [13] turned out to be 23.9 µg/mL (≈ 70.3 µM); in the data set on HEp-2 it was 37.6 µg/mL (≈ 111 µM); with HCT-116 [14], 9.51 µg/mL (≈ 27.9 µM); in the data set with MCF7 [15] it was 20.5 µg/mL (≈ 60.2 µM); in the data set on HeLa [16], 18.5 µg/mL (≈ 54.3 µM).
Regarding `CN1C(=O)[C@]23CC4=CC=C[C@H](O)[C@H]4N2C(=O)[C@@]1(CO)SS3` [GLIOTOXIN], the negative logarithm of the IC50 (pIC50) is 7.10 with MCF7 [17]; 6.62 with SF-268 [18]; 6.70 in the data set on U-937 [19]; 4.80 in the data set with PC-3 [20]; 5.91 in the data set with HCT-116 [21]; 6.62 in the data set on SF-268 [23]. In addition, the pIC50 in the data set on NCI-H460 [24] was 6.62; with HepG2 [25] it was 6.62; in the data set with HEK293, 5.80; in the data set with NCI-H460 [26], 6.68; with HCT-116 [27], 6.39; in the data set with RKO it was 6.10. In addition, the pIC50 was 6.68 in the data set on HepG2 [28], 6.28 in the data set with U-937 [29], 7.10 with MCF7 [30] and 6.41 in the data set with PC-3 [31]. Besides, the IC50 in data set [22] amounted to 0.15 µg/mL (≈ 0.46 µM).

These data come from ChEMBL document CHEMBL5500324, “The potential of marine-derived piperazine alkaloids: Sources, structures and bioactivities” (Eur J Med Chem, 2024).
